IC50 data for 73 compounds are collected here from the Kinase Knowledgebase extract (Sharma et al. 2016).

The assay deals with PIK3CG (human) (UniProt P48736). Kind of assay: Assessment of PIK3CG Kinase Activity.

Molecules are shown by their SMILES.

Sequence of PIK3CG (human) (P48736 whole entry, looked up): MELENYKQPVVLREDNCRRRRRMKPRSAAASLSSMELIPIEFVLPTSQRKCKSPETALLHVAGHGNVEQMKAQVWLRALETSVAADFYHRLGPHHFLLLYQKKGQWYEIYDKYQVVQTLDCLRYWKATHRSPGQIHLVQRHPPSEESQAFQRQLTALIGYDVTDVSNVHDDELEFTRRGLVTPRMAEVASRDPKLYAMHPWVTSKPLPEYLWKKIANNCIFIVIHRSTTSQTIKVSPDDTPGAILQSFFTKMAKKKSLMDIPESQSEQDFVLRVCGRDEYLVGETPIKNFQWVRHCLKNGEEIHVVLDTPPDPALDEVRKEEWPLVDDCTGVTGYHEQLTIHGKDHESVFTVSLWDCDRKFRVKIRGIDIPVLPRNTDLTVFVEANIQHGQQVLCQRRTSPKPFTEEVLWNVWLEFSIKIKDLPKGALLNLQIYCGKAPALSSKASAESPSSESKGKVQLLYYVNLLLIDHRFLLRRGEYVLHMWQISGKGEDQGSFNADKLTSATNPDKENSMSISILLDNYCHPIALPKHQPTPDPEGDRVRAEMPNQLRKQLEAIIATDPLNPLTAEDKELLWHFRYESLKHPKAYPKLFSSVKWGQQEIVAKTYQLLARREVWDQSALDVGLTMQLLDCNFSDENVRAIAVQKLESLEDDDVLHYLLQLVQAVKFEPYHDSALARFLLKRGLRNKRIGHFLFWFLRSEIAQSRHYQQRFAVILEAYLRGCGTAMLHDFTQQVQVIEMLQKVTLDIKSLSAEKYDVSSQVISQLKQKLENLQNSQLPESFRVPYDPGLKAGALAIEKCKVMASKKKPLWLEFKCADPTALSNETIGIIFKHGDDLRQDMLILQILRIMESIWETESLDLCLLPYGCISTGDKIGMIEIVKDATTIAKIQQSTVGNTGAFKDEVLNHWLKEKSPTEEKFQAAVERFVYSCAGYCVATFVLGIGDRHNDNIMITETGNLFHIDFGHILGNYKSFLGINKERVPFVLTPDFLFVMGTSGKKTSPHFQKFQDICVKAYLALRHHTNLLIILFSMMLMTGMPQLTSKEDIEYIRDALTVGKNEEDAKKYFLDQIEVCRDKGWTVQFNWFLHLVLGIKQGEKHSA

In general, IC50 refers to the concentration needed to halve the response being measured. Higher therefore signals weaker potency in that assay. `Cn1cc(CCNC(=O)Nc2nc3c(s2)-c2c(c(-c4cccnc4)nn2-c2ccccc2Cl)CC3)cn1` displayed an IC50 below 800 nM.

The compound `CCN(CC)C(=O)N1CCC[C@@H]1CNC(=O)Nc1nc2c(s1)-c1c(c(-c3cncnc3)nn1-c1ccccc1Cl)CC2` registered a 50% inhibitory concentration (IC50) below 800 nM.

Compound `CC(C)(C)OC(=O)NCC1CCCN1C(=O)Nc1nc2c(s1)-c1c(c(-c3cccnc3)nn1-c1ccccc1Cl)CC2` (stereo not drawn) showed an IC50 below 800 nM.

Compound `CN(C)C(=O)CCCNC(=O)Nc1nc2c(s1)-c1c(c(-c3ccccc3)nn1-c1ccccc1Cl)CC2` showed an IC50 below 800 nM.

`O=C(NCCc1nc(C2CC2)no1)Nc1nc2c(s1)-c1c(c(C3CC3)nn1-c1ccccc1Cl)CC2`: the IC50 was below 800 nM.

In turn, `CN(C)CCOc1cccc(CNC(=O)Nc2nc3c(s2)-c2c(c(-c4cncnc4)nn2-c2ccccc2Cl)CC3)c1` gave an IC50 below 800 nM.

With `O=C(NCc1cc(CN2CCOCC2)ccn1)Nc1nc2c(s1)-c1c(c(-c3cncnc3)nn1-c1ccccc1Cl)CC2`, the 50% inhibitory concentration (IC50) was below 800 nM.

In the case of `CC(C)(C)OC(=O)CC1(O)CCN(C(=O)Nc2nc3c(s2)-c2c(c(-c4cccnc4)nn2-c2ccccc2Cl)CC3)CC1`, the half-inhibitory concentration (IC50) is below 800 nM.

Take `O=C(NCc1cccc(N2CCNC2=O)c1)Nc1nc2c(s1)-c1c(c(-c3cccnc3)nn1-c1ccccc1Cl)CC2`: the IC50 is below 800 nM.

For `CC(C)(CNc1ccc(C(C)(C)C)cc1)NC(=O)Nc1nc2c(s1)-c1c(c(-c3cccnc3)nn1-c1ccccc1Cl)CC2`, the 50% inhibitory concentration (IC50) is below 800 nM.

In the case of `CCc1cccc(CNC(=O)Nc2nc3c(s2)-c2c(c(-c4cccnc4)nn2C2CCN(C)CC2)CC3)c1`, the IC50 is below 800 nM.

As to `CC(C)(C)OC(=O)N1CC[C@H](CNC(=O)Nc2nc3c(s2)-c2c(c(-c4cncnc4)nn2-c2ccccc2Cl)CC3)C1`, the IC50 was below 800 nM.

As for `O=C(NCc1ccc2cc[nH]c2c1)Nc1nc2c(s1)-c1c(c(-c3cncnc3)nn1-c1ccccc1Cl)CC2`, the 50% inhibitory concentration (IC50) is below 800 nM.

Consider `CCc1csc(CCNC(=O)Nc2nc3c(s2)-c2c(c(C4CC4)nn2-c2ccccc2Cl)CC3)n1`, for which the IC50 is below 800 nM.

With `CC(C)c1noc(CCNC(=O)Nc2nc3c(s2)-c2c(c(C4CC4)nn2-c2ccccc2Cl)CC3)n1`, the IC50 was below 800 nM.

`CCc1noc(CCNC(=O)Nc2nc3c(s2)-c2c(c(-c4cccnc4)nn2-c2ccccc2Cl)CC3)n1` came in with an IC50 below 800 nM.

`O=C1CC[C@H](NC(=O)Nc2nc3c(s2)-c2c(c(-c4cccnc4)nn2-c2ccccc2Cl)CC3)CN1` returned an IC50 below 800 nM.

Take `NC(=O)Nc1cccc(CNC(=O)Nc2nc3c(s2)-c2c(c(C4CC4)nn2-c2ccccc2Cl)CC3)c1`: the IC50 was below 800 nM.

`CCc1nnc(CCNC(=O)Nc2nc3c(s2)-c2c(c(C4CC4)nn2-c2ccccc2Cl)CC3)o1` yielded an IC50 below 800 nM.

Compound `CC(C)c1cnc(CCNC(=O)Nc2nc3c(s2)-c2c(c(-c4cccnc4)nn2-c2ccccc2Cl)CC3)o1` showed a half-inhibitory concentration (IC50) below 800 nM.

`COc1cc(CNC(=O)Nc2nc3c(s2)-c2c(c(-c4cncnc4)nn2-c2ccccc2Cl)CC3)cc(OC)c1` yielded a concentration for half-maximal inhibition (IC50) below 800 nM.

In turn, `O=C(Nc1cccc(N2CCNCC2)c1)Nc1nc2c(s1)-c1c(c(-c3cncnc3)nn1-c1ccccc1F)CC2` gave a half-maximal inhibitory concentration (IC50) below 800 nM.

`O=C(NCCc1cccc(C(F)(F)F)c1)Nc1nc2c(s1)-c1c(c(-c3cncnc3)nn1-c1ccccc1Cl)CC2`: the IC50 was below 800 nM.

In turn, `CN(C)CCNC(=O)Nc1nc2c(s1)-c1c(c(-c3cncnc3)nn1-c1ccccc1Cl)CC2` had a concentration for half-maximal inhibition (IC50) below 800 nM.

Compound `CNC(=O)Nc1nc2c(s1)-c1c(c(-c3cncnc3)nn1-c1ccccc1F)CC2` showed an IC50 below 800 nM.

The compound `CC(=O)NCC1CCCN(C(=O)Nc2nc3c(s2)-c2c(c(-c4cccnc4)nn2-c2ccccc2Cl)CC3)C1` (stereo not drawn) had a half-maximal inhibitory concentration (IC50) below 800 nM.

`O=C(NCCC(=O)N1CCCC1)Nc1nc2c(s1)-c1c(c(-c3cncnc3)nn1-c1ccccc1Cl)CC2` returned an IC50 below 800 nM.

For the compound `CCn1cnc(CCNC(=O)Nc2nc3c(s2)-c2c(c(-c4cccnc4)nn2C2CCN(C4CCCC4)CC2)CC3)c1`, the IC50 is below 800 nM.

Turning to `CN(C)C(=O)CNC(=O)Nc1nc2c(s1)-c1c(c(C3CC3)nn1-c1ccccc1Cl)CC2`, the IC50 was below 800 nM.

On to `CN1CCN(Cc2cccc(NC(=O)Nc3nc4c(s3)-c3c(c(-c5cncnc5)nn3-c3ccccc3F)CC4)c2)CC1`, for which the half-maximal inhibitory concentration (IC50) is below 800 nM.

The compound `CC(C)(C)OC(=O)NCc1cccc(CNC(=O)Nc2nc3c(s2)-c2c(c(-c4cccnc4)nn2-c2ccccc2Cl)CC3)c1` showed an IC50 below 800 nM.

The compound `O=C(Nc1nc2c(s1)-c1c(c(-c3cccnc3)nn1-c1ccccc1Cl)CC2)NC1CCC(N2CCNC2=O)CC1` (stereo not drawn) yielded a half-maximal inhibitory concentration (IC50) below 800 nM.

`N#Cc1cccc(CNC(=O)Nc2nc3c(s2)-c2c(c(-c4cncnc4)nn2-c2ccccc2Cl)CC3)c1`: the IC50 was below 800 nM.

In turn, `O=C(Nc1nc2c(s1)-c1c(c(-c3cccnc3)nn1-c1ccccc1Cl)CC2)N1CCC(CN2CCc3ccccc3C2=O)C1` (stereo not drawn) showed a concentration for half-maximal inhibition (IC50) below 800 nM.

For `CC(C)OC(=O)N1CCC[C@@H]1CNC(=O)Nc1nc2c(s1)-c1c(c(-c3cncnc3)nn1-c1ccccc1Cl)CC2`, the IC50 is below 800 nM.

The compound `Cn1cc(CCNC(=O)Nc2nc3c(s2)-c2c(c(-c4ccccc4)nn2-c2ccccc2Cl)CC3)cn1` returned an IC50 below 800 nM.

Turning to `O=C(NCc1cccc(N2CCNC2=O)c1)Nc1nc2c(s1)-c1c(c(-c3cccnc3)nn1C1CCN(C3CCCC3)CC1)CC2`, the IC50 was below 800 nM.

The compound `O=C(Nc1nc2c(s1)-c1c(cnn1-c1ccccc1)CC2)N1CCCCC1` showed an IC50 below 800 nM.

`CN1CCC(n2nc(-c3cccnc3)c3c2-c2sc(NC(=O)NCc4cccc(NC(N)=O)c4)nc2CC3)CC1` yielded a concentration for half-maximal inhibition (IC50) below 800 nM.

`CCc1csc(CCNC(=O)Nc2nc3c(s2)-c2c(c(-c4cccnc4)nn2-c2ccccc2Cl)CC3)n1` displayed an IC50 below 800 nM.

As for `CC(C)CNC(=O)CCNC(=O)Nc1nc2c(s1)-c1c(c(-c3cncnc3)nn1-c1ccccc1Cl)CC2`, the IC50 was below 800 nM.

`COC(=O)CCNC(=O)Nc1nc2c(s1)-c1c(c(-c3cncnc3)nn1-c1ccccc1Cl)CC2` registered an IC50 below 800 nM.

Regarding `CCN1CCC[C@H]1CNC(=O)Nc1nc2c(s1)-c1c(c(-c3cccnc3)nn1-c1ccccc1Cl)CC2`, the IC50 is below 800 nM.

`CN(C)C(=O)Nc1nc2c(s1)-c1c(c(-c3cncnc3)nn1-c1ccccc1Cl)CC2` yielded an IC50 below 800 nM.

`CC(C)(C)CC(=O)N1CCC[C@@H]1CNC(=O)Nc1nc2c(s1)-c1c(c(-c3cncnc3)nn1-c1ccccc1Cl)CC2`: the half-maximal inhibitory concentration (IC50) is below 800 nM.

In the case of `O=C(NCCC(=O)N1CCCCC1)Nc1nc2c(s1)-c1c(c(-c3cncnc3)nn1-c1ccccc1Cl)CC2`, the half-maximal inhibitory concentration (IC50) was below 800 nM.

For the compound `CN1CCC(C(=O)N2CCC[C@@H]2CNC(=O)Nc2nc3c(s2)-c2c(c(-c4cncnc4)nn2-c2ccccc2Cl)CC3)C1` (stereo partly drawn), the 50% inhibitory concentration (IC50) was below 800 nM.

`CCN1CCC2(CCN(C(=O)Nc3nc4c(s3)-c3c(c(-c5cccnc5)nn3-c3ccccc3Cl)CC4)C2)C1` (stereo not drawn) showed a half-inhibitory concentration (IC50) below 800 nM.

For `CCc1cnc(CCNC(=O)Nc2nc3c(s2)-c2c(c(-c4ccccc4)nn2-c2ccccc2Cl)CC3)o1`, the half-inhibitory concentration (IC50) is below 800 nM.

In the case of `O=C(NCCc1ccccn1)Nc1nc2c(s1)-c1c(c(-c3cncnc3)nn1-c1ccccc1Cl)CC2`, the IC50 is below 800 nM.

Turning to `CC(=O)Nc1ccc(S(=O)(=O)NCCNC(=O)Nc2nc3c(s2)-c2c(c(-c4ccccc4)nn2-c2ccccc2Cl)CC3)cc1`, the IC50 is below 800 nM.

As to `CCn1cnc(CCNC(=O)Nc2nc3c(s2)-c2c(c(C4CC4)nn2-c2ccccc2Cl)CC3)c1`, the 50% inhibitory concentration (IC50) was below 800 nM.

As to `O=C(NCCc1cccc(N2CCNC2=O)c1)Nc1nc2c(s1)-c1c(c(-c3cncnc3)nn1-c1ccccc1Cl)CC2`, the IC50 is below 800 nM.

In turn, `O=C(NCCCN1CCOCC1)Nc1nc2c(s1)-c1c(c(-c3cncnc3)nn1-c1ccccc1F)CC2` registered a half-maximal inhibitory concentration (IC50) below 800 nM.

The compound `O=C(NCCc1cccc(N2CCNC2=O)c1)Nc1nc2c(s1)-c1c(c(-c3cccnc3)nn1-c1ccccc1Cl)CC2` registered an IC50 below 800 nM.

`O=C(Nc1nc2c(s1)-c1c(c(-c3ccccc3)nn1-c1ccccc1Cl)CC2)NC1CCC(NS(=O)(=O)c2ccccc2)CC1` (stereo not drawn) yielded a half-maximal inhibitory concentration (IC50) below 800 nM.

Compound `CC(=O)Nc1cccc(CNC(=O)Nc2nc3c(s2)-c2c(c(C4CC4)nn2-c2ccccc2Cl)CC3)c1` gave an IC50 below 800 nM.

In turn, `CC(C)(C)OC(=O)Nc1cccc(CNC(=O)Nc2nc3c(s2)-c2c(c(-c4cccnc4)nn2-c2ccccc2Cl)CC3)c1` registered an IC50 below 800 nM.

As for `CCOCCNC(=O)Nc1nc2c(s1)-c1c(c(-c3ccccc3)nn1-c1ccccc1Cl)CC2`, the concentration for half-maximal inhibition (IC50) was below 800 nM.

In turn, `O=C(NCc1ccccc1N1CCCCC1)Nc1nc2c(s1)-c1c(c(-c3cccnc3)nn1-c1ccccc1Cl)CC2` came in with an IC50 below 800 nM.

`CCN(CC)CCNC(=O)Nc1nc2c(s1)-c1c(c(-c3cncnc3)nn1-c1ccccc1Cl)CC2` registered a half-maximal inhibitory concentration (IC50) below 800 nM.

In turn, `O=C(NC[C@@H]1CCNC1)Nc1nc2c(s1)-c1c(c(-c3cncnc3)nn1-c1ccccc1Cl)CC2` registered an IC50 below 800 nM.

As for `NC(=O)Nc1nc2c(s1)-c1c(c(-c3cccnc3)nn1-c1ccccc1Cl)CC2`, the IC50 is below 800 nM.

`O=C(NCc1ncc[nH]1)Nc1nc2c(s1)-c1c(c(-c3cccnc3)nn1-c1ccccc1Cl)CC2` returned an IC50 below 800 nM.

For the compound `CN[C@@H](C)C(=O)N1CC[C@H](CNC(=O)Nc2nc3c(s2)-c2c(c(-c4cncnc4)nn2-c2ccccc2Cl)CC3)C1`, the IC50 is below 800 nM.

`COC(=O)N1CC[C@H](CNC(=O)Nc2nc3c(s2)-c2c(c(-c4cncnc4)nn2-c2ccccc2Cl)CC3)C1`: the 50% inhibitory concentration (IC50) was below 800 nM.

`CC(C)(C)OC(=O)N1CCC(CNC(=O)Nc2nc3c(s2)-c2c(c(-c4cccnc4)nn2-c2ccccc2Cl)CC3)CC1`: the IC50 was below 800 nM.

`CC(=O)Nc1cccc(CNC(=O)Nc2nc3c(s2)-c2c(c(-c4cccnc4)nn2C2CCN(C)CC2)CC3)c1` gave an IC50 below 800 nM.

For the compound `CC(C)(C)OC(=O)CCNC(=O)Nc1nc2c(s1)-c1c(c(-c3ccccc3)nn1-c1cccc(Cl)c1)CC2`, the concentration for half-maximal inhibition (IC50) is below 800 nM.

`CCOC(=O)N1CCC[C@@H]1CNC(=O)Nc1nc2c(s1)-c1c(c(-c3cncnc3)nn1-c1ccccc1Cl)CC2` showed a half-maximal inhibitory concentration (IC50) below 800 nM.

In the case of `O=C(NCCc1nc(C2CC2)no1)Nc1nc2c(s1)-c1c(c(-c3cccnc3)nn1-c1ccccc1Cl)CC2`, the half-maximal inhibitory concentration (IC50) was below 800 nM.

Consider `O=C(NCCN1CCOCC1)Nc1nc2c(s1)-c1c(c(-c3cccnc3)nn1-c1ccccc1Cl)CC2`, for which the IC50 was below 800 nM.

In turn, `O=C(NCc1nnn[nH]1)Nc1nc2c(s1)-c1c(c(-c3cncnc3)nn1-c1ccccc1Cl)CC2` came in with an IC50 below 800 nM.
